Results on six compounds are retold here after patent publication US7863324B2, “Chroman-derived compounds for the treatment of cancer” (Wisconsin Alumni Research Foundation, priority 2003, dated 2011).

“And” between values parts separate entries of the source, which are not always exact repeats. Equal values may be shown once. “Also recorded” adds a separate entry of the source. Read-outs that look alike come from different tables or passages of the source. Bounds are passed on as bounds.

For series [1], the target named is T1, androgen receptor in LNCaP cells (functional mutant AR) (Homo sapiens, UniProt P10275, T878A).
T1 construct: host or cells: LNCaP
T1 sequence (P10275 1-920 T878A): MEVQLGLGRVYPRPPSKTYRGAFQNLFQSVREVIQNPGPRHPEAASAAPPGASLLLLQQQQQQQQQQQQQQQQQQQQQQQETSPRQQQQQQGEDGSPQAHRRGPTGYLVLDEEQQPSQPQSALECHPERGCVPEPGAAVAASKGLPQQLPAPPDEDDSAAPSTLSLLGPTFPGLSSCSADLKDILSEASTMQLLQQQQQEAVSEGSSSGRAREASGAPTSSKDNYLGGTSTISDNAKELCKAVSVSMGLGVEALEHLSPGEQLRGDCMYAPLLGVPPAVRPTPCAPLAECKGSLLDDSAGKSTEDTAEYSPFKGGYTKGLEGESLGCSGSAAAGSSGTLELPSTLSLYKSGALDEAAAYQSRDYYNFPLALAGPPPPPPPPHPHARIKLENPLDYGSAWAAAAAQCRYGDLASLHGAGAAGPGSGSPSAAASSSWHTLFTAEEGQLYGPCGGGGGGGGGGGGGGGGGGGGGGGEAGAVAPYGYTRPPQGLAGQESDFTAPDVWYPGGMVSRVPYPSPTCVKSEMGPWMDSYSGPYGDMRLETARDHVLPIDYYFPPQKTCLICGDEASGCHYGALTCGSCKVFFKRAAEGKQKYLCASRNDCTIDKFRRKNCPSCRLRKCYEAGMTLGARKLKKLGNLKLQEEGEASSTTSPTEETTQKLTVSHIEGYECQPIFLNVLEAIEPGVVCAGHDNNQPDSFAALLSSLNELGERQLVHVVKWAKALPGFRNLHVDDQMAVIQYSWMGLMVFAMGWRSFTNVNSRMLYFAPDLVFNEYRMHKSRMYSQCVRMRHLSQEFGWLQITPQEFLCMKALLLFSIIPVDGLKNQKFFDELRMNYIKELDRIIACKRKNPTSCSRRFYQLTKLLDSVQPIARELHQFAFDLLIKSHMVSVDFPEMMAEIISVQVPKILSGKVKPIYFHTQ
The experiment in a line: Androgen receptor binding competition assay (3H-R1881) in LNCaP cells. Here is the method: (§1) Androgen receptor binding competition assay. An androgen receptor binding competition assay was performed as previously described (22). LNCaP or LAPC4 prostate carcinoma cells were plated in 12-well tissue culture dishes (Costar, Corning, N.Y.) at 3.0×10^5 cells per well in phenol-red free DMEM/CSS 3 d prior to analysis. For competitor analysis, DMEM/CSS was removed by aspiration and replaced with 1 mL of phenol-red free DMEM containing 1 nM ^3H-R1881, 1 μM triamcinolone acetonide, and competitor at the specified concentrations for 2 h at 37° C. in a 5% CO2 incubator. […] Cells were washed twice with 1 mL phenol red-free DMEM and placed in 8.0 mL of ScintiVerse II Scintillation Cocktail (Fisher Scientific, Pittsburgh, Pa.) for determination of radioactivity (i.e., dpm) using a Beckman LS 6000TA Liquid Scintillation System (Beckman Instruments Inc., Fullerton, Calif.).

Series [2] relates to PSA secretion from LNCaP cells. The experiment in a line: Androgen-induced PSA secretion from LNCaP cells. The conditions noted are these: 48 h. The format is cell-based, human. How it is done: Determination of secreted PSA levels. LNCaP cells were cultured in 96 well plates (Costar) at 5,000 cells per well in DMEM/CSS 1 d before treatment. Forty-eight h after treatment, PSA levels in cell culture media were determined using the Tandem-MP PSA kit (Beckman Coulter, Inc.) according to manufacturer's instructions. PSA levels were normalized to DNA levels as determined using a Hoechst-based fluorescence DNA assay (23).

For series [3], the system named is LNCaP cells. The experiment in a line: Cell growth analysis (Hoechst DNA assay), LNCaP. The conditions noted are these: 4 d. The format is cell-based, human. Here is the method:
(§2) Cell growth and viability analyses. Five thousand LNCaP or LAPC4 cells were plated in each well of 96-well plates (Costar) in 100 μl of DMEM/CSS. Two to 3 d after plating, cells were treated by adding 100 μl of DMEM/CSS containing 2× the concentration of the specified treatment to each well. Four d after treatment, the relative cell number was estimated by the determining DNA concentration of each well using a Hoechst-based fluorescence DNA assay, as previously described (23). Growth analysis with DU145 cells was performed similar to those with LNCaP and LAPC4 cells except DUI45 cells were initially seeded at 500 cells per well. Cell viability was determined by trypan blue exclusion and quantified by light microscopic analysis using a hemacytometer.

Series [4] has as its system AR protein levels in LNCaP cells. The experiment in a line: Immunoblot analysis of AR protein levels. The note with it: 30 μM compound, 5 d, medium with 5% serum. The format is cell-based, human. How it is done: Immunoblot analysis of AR protein levels. LNCaP cells were plated at a density of 1×10^6 cells per 100 mm cell culture plate in 10 ml of DMEM/FBS and maintained in incubators at 37° C. in 5% CO2. […] Membranes were then incubated with a secondary horseradish peroxidase-conjugated anti-mouse antibody (Amersham Pharmacia Biotech, Piscataway, N.J.) and analyzed using the Enhanced Chemiluminescence Plus reagent (Amersham Pharmacia Biotech). Autoradiograms were prepared by exposing the blots to BioMax Light X-ray film (Eastman Kodak Co., Rochester, N.Y.) and developed using a CURIX 60 CP Processor (Agfa, Ridgefield Park, N.J.).
(Immunoblotting shows a protein as a band on a membrane.)

The procedure of series [5]: The oral toxicity of PMCol was determined in 6 month-old male FVB mice. A single high oral dose of 1000 mg/kg PMCol in sesame oil was administered to 4 mice by gavage. Four control mice received only sesame oil by gavage (vehicle control). […] In a second study, four 6 month-old male FVB mice received 200 mg/kg PMCol daily in sesame oil by gavage for 10 days. Three mice receiving only sesame oil (vehicle control) were used as controls. Body weights were determined daily and all mice were autopsied to examine gross organ changes on day 11.

Series [6] deals with MMTV promoter activity in LNCaP cells. The series can be described thus: Androgen-stimulated MMTV promoter luciferase reporter assay, LNCaP. Type of series: cell-based, human. The note with it: for decrease of R1881-induced luciferase expression: 24 h. Here is the method:
(§3) Androgen-stimulated promoter reporter assay analysis. LNCaP and LAPC4 prostate carcinoma cell lines were cultured in 12-well cell culture plates (Costar) in DMEM/CSS 2 to 3 d before transfection. Androgen-induced trancriptional activation was determined using a reporter construct with an MMTV promoter that regulates the expression of luciferase (24). LNCaP and LAPC4 cells were transfected with the MMTV/luciferase plasmid using the Effectene Transfection Reagent (Qiagen Inc., Valencia, Calif.), according to the manufacturer's instructions. Twenty-four h after transfection, cells were treated with R1881 with or without test reagents at the specified concentrations. Cell extracts were acquired 24 to 48 h after treatment by removing medium, washing 1× with PBS, and obtaining extract with 200 μL of 1× Reporter Lysis Buffer (Promega, Madison, Wis.). Luciferase activity was determined as previously described (24).

Series [7] in a line: Water solubility. Type of series: physicochemical. The note with it: cell culture studies.
In series [8] the target is androgen receptor in LAPC4 cells (normal human AR) (Homo sapiens, UniProt P10275). The experiment in a line: Androgen receptor binding competition assay (3H-R1881) in LAPC4 cells. Here is the method: as §1
For series [9], the system named is LAPC4 cells. The series can be described thus: Cell growth analysis (Hoechst DNA assay), LAPC4. The format is cell-based, human. The conditions noted are these: medium with 5% serum, 4 d. How it is done:
as §2

For series [10], the system named is MMTV promoter activity in LAPC4 cells. The experiment in a line: Androgen-stimulated MMTV promoter luciferase reporter assay, LAPC4. Type of series: cell-based, human. Here is the method: as §3
Series [11] deals with androgen receptor protein levels in LNCaP cells. The conditions noted are these: cited from earlier work.
The conditions of series [12]: general statement; cited from earlier work.

Chain of androgen receptor in LAPC4 cells (normal human AR) (P10275 whole entry): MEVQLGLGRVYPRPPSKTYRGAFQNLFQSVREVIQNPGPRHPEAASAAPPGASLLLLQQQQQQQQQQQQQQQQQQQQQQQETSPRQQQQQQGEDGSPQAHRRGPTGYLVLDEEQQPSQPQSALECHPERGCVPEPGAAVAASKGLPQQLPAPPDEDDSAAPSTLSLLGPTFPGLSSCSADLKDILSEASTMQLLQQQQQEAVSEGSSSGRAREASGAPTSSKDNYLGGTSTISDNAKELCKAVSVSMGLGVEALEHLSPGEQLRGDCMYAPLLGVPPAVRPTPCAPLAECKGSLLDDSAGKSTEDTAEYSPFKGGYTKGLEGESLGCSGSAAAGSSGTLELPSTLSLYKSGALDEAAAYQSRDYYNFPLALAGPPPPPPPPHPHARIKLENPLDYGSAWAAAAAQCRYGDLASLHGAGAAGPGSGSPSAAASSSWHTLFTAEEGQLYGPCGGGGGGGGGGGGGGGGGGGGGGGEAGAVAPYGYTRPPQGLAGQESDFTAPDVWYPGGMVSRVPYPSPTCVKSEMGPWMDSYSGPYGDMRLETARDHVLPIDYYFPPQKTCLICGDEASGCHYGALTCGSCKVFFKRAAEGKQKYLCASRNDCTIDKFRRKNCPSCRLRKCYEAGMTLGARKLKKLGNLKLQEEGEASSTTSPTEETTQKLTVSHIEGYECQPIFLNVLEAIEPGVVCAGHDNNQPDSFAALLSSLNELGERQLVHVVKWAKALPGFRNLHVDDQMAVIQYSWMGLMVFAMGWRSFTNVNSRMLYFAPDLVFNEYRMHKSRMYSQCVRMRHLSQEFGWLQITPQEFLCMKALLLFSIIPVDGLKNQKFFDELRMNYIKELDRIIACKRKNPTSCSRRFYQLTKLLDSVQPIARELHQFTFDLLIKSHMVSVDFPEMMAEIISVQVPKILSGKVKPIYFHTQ

As to `Cc1cc(C)c2c(c1C)OC(C)(C)CC2` [PMC, 2,2,5,7,8-pentamethylchroman, reference compound], the “anti-androgenic activity in 3H-R1881 competition compared with PMCol” value in [1] (LNCaP cells, FIG. 2A) is listed as “less anti-androgenic activity than PMCol”. Moreover, the “decrease of R1881-stimulated PSA levels” value in series [2] (1.0 nM R1881, 30 μM compound) stood at 20%. In [3] (30 μM compound), the “shift of R1881-stimulated biphasic LNCaP growth curve” value is on record as “more modest, but significant, shift to the right”. The “R1881 concentration giving in control cells the growth response equivalent to that at 0.3 nM R1881 under treatment” value (“R1881 concentration giving” below) in series [3] (LNCaP, 30 μM compound) worked out at 0.03 nM. Further, the AR protein levels result in series [4] was “did not result in altered AR protein levels; also recorded: not significantly altered”.

The term IC50 denotes the point on the concentration scale where inhibition reaches its midpoint. A word on the inhibition: it is the share of the control response that was lost under treatment. Turning to `Cc1c(C)c2c(c(C)c1O)CCC(C)(C)O2` [PMCol, 2,2,5,7,8-pentamethyl-6-chromanol], the “gross changes in organs at autopsy” value in series [5] (200 mg/kg daily by gavage for 10 days, autopsy day 11) was “No gross changes in organs”. The “change in animal body mass” value in series [5] (mouse, in vivo) is listed as “no significant change”. Also, in series [5] (mouse, in vivo, po), the LD50 is listed as more than 1000 mg/kg body weight. Besides, in [5] (mouse, in vivo, po, 1000 mg/kg), the “change in animal behavior or body mass” value is listed as “No significant change”. The “decrease of R1881-induced luciferase expression” value in series [6] (1.0 nM R1881, 25 μM compound) was 50%; in series [6] (1.0 nM R1881, 50 μM compound), 70%. For the same compound, the “MMTV promoter activity, compound alone” value in series [6] (no R1881) is on record as “no effect”. Also, in [1] (LNCaP cells), the “potency at competing for 3H-R1881 relative to bicalutamide (fold less potent)” value is “approximately 10 fold”. Besides, the 50% inhibitory concentration (IC50) was ~10 µM and 7.2 µM in series [1] (LNCaP cells, against 1 nM 3H-R1881, estimated (FIG. 2A), read-out: IC50 for competition of 3H-R1881 binding); 5 to 15 µM in series [1] (repeated studies, data not shown, read-out: IC50 values, repeated studies of competition for 3H-R1881 binding); approximately 10 µM in series [8] (against 1 nM R1881). For the same compound, in [2] (0.05 nM R1881, 30 μM compound), the “inhibition of R1881-stimulated PSA release” value was “completely inhibited”. For the same compound, in series [2] (1.0 nM R1881, 30 μM compound), the “decrease of R1881-stimulated PSA levels” value was 80% and 81%. The “PSA release from LNCaP cells, compound alone” value in series [2] (30 μM, no R1881) was “not affected”. Moreover, the inhibition at 30 µM in series [2] (Homo sapiens, LNCaP, 0.05 nM R1881, 30 μM compound, read-out: inhibition of R1881-stimulated PSA release) amounted to 100%. For the same compound, the water solubility entry in [7] is “sufficiently water soluble to permit studies in cell culture”. Besides, in series [8] (30 μM compound), the “decrease in 3H-R1881 binding” value is 75%. In addition, the “concentration required to significantly reduce cell growth” value in series [9] was not below 60 µM. Besides, in series [3] (1.0 nM R1881, 10 μM to 30 μM compound), the “LNCaP cell growth in presence of growth inhibitory R1881” value is reported as “significant stimulation”. Also, the “shift of R1881-stimulated biphasic LNCaP growth curve” value in series [3] (30 μM compound) is “shifted to the right”. Besides, the “concentration significantly inhibiting R1881-stimulated LNCaP growth” value in [3] (LNCaP, 0.1 nM R1881) was not below 10 µM. Moreover, the “R1881 concentration giving” value in series [3] (LNCaP, 30 μM compound) is on record as 0.03 nM. The “concentration at which LNCaP cell growth was decreased” value in series [3] (LNCaP, FIG. 3B) is not below 40 µM. Moreover, the “growth modulatory (AR agonist) activity in androgen-deficient media” value in [3] (LNCaP, no R1881, 10 μM to 30 μM) is recorded as “no growth modulatory activity”. For the same compound, the AR protein levels entry in series [4] is on record as “did not affect androgen receptor protein levels; also recorded: did not result in altered AR protein levels; also recorded: not significantly altered”.

As to `C[C@]1(O)CC[C@H]2[C@@H]3CCC4=CC(=O)CCC4=C3C=C[C@@]21C` [R1881, methyltrienolone, reference compound], the “increase in luciferase expression” value in series [6] (1.0 nM R1881, 24 h) is 54 fold. Also, in series [10] (1.0 nM R1881), the “increase in MMTV/LTR driven luciferase expression” value came to 20 fold. Further, the “increase in PSA levels” value is given as 3.1 fold in series [2] (0.05 nM R1881) and 12 fold in series [2] (1.0 nM R1881).

On to `CC(O)(CS(=O)(=O)c1ccc(F)cc1)C(=O)Nc1ccc(C#N)c(C(F)(F)F)c1` (stereo not shown) [bicalutamide, reference compound], for which the “decrease of R1881-stimulated luciferase expression” value is “approximately 50%” in series [6] (1.0 nM R1881, 1 μM compound) and “approximately 50%” in series [10] (1.0 nM R1881, 1 μM compound). The “decrease of R1881-stimulated PSA levels” value in [2] (1.0 nM R1881, 1 μM compound) was 43%. The “R1881 concentration giving” value in [3] (LNCaP, 1 μM compound) is reported as 0.03 nM.

For `COc1cc(/C=C/C(=O)CC(=O)/C=C/c2ccc(O)c(OC)c2)ccc1O` [curcumin], the “effect on AR protein levels” value in series [11] was “down-regulate androgen receptor protein levels”.

Take `Cc1c(C)c2c(c(C)c1O)CC[C@@](C)(CCC[C@H](C)CCC[C@H](C)CCCC(C)C)O2` [vitamin E, α-tocopherol]: in series [12], the solubility in water entry is on record as “practically insoluble in water”.
